Assay results reported in PubChem BioAssay (NCI).
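Following 48 hours of exposure in 96-well plates, responses at five concentrations were used to interpolate endpoints linearly. TGI denotes the concentration required for complete inhibition of growth.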

How the values were obtained:
Experiment in all cases: DTP human tumour cell line panel, 48 h
SNB-19 CNS = system: SNB-19 CNS
SF-295 CNS = system: SF-295 CNS
HS 578T breast = system: HS 578T breast
HT29 colon = system: HT29 colon
DU-145 prostate = system: DU-145 prostate
A498 renal = system: A498 renal
UO-31 renal = system: UO-31 renal
IGROV1 ovarian = system: IGROV1 ovarian
SK-OV-3 ovarian = system: SK-OV-3 ovarian
K-562 leukemia = system: K-562 leukemia
OVCAR-4 ovarian = system: OVCAR-4 ovarian
MALME-3M melanoma = system: MALME-3M melanoma
T-47D breast = system: T-47D breast
SK-MEL-5 melanoma = system: SK-MEL-5 melanoma
SK-MEL-28 melanoma = system: SK-MEL-28 melanoma
EKVX NSCLC = system: EKVX NSCLC
UACC-62 melanoma = system: UACC-62 melanoma
SN12C renal = system: SN12C renal
MDA-N = system: MDA-N
KM12 colon = system: KM12 colon
HCT-15 colon = system: HCT-15 colon
U251 CNS = system: U251 CNS
MOLT-4 leukemia = system: MOLT-4 leukemia
OVCAR-5 ovarian = system: OVCAR-5 ovarian
BT-549 breast = system: BT-549 breast
SW-620 colon = system: SW-620 colon
OVCAR-8 ovarian = system: OVCAR-8 ovarian
UACC-257 melanoma = system: UACC-257 melanoma
NCI-H226 lung = system: NCI-H226 lung
SF-539 CNS = system: SF-539 CNS
CAKI-1 renal = system: CAKI-1 renal
SNB-75 CNS = system: SNB-75 CNS
NCI-H522 lung = system: NCI-H522 lung
LOX IMVI melanoma = system: LOX IMVI melanoma
COLO 205 colon = system: COLO 205 colon
TK-10 renal = system: TK-10 renal
RPMI-8226 leukemia = system: RPMI-8226 leukemia
HCC-2998 colon = system: HCC-2998 colon
HOP-62 NSCLC = system: HOP-62 NSCLC
SK-MEL-2 melanoma = system: SK-MEL-2 melanoma
A549 NSCLC = system: A549 NSCLC
NCI-H460 lung = system: NCI-H460 lung
M14 melanoma = system: M14 melanoma
HCT-116 colon = system: HCT-116 colon
PC-3 prostate = system: PC-3 prostate
ACHN renal = system: ACHN renal
SR leukemia = system: SR leukemia
SF-268 CNS = system: SF-268 CNS
OVCAR-3 ovarian = system: OVCAR-3 ovarian
MDA-MB-435 = system: MDA-MB-435
HOP-92 NSCLC = system: HOP-92 NSCLC
MCF7 breast = system: MCF7 breast
NCI-H23 lung = system: NCI-H23 lung
786-0 renal = system: 786-0 renal
CCRF-CEM leukemia = system: CCRF-CEM leukemia
NCI/ADR-RES ovarian = system: NCI/ADR-RES ovarian
RXF 393 renal = system: RXF 393 renal
MDA-MB-231 breast = system: MDA-MB-231 breast
HL-60(TB) leukemia = system: HL-60(TB) leukemia

c1ccc2c(c1)N=c1ccccc1=P21c2ccccc2Nc2ccccc21
TGI (SNB-19 CNS): 7.26 µM
TGI (SF-295 CNS): 7.64 µM
TGI (HS 578T breast): 3.89 µM
TGI (HT29 colon): 10.1 µM
TGI (DU-145 prostate): 10.5 µM
TGI (A498 renal): 5.56 µM
TGI (UO-31 renal): 27 µM
TGI (IGROV1 ovarian): 10.6 µM
TGI (SK-OV-3 ovarian): 5.82 µM
TGI (K-562 leukemia): > 100 µM
TGI (OVCAR-4 ovarian): 19.9 µM
TGI (MALME-3M melanoma): 0.868 µM
TGI (T-47D breast): 1.63 µM
TGI (SK-MEL-5 melanoma): 0.42 µM
TGI (SK-MEL-28 melanoma): 11.7 µM
TGI (EKVX NSCLC): > 31.1 µM
TGI (UACC-62 melanoma): > 100 µM
TGI (SN12C renal): 13.5 µM
TGI (MDA-N): 4.07 µM
TGI (KM12 colon): 2.13 µM
TGI (HCT-15 colon): > 71.4 µM
TGI (U251 CNS): 11.3 µM
TGI (MOLT-4 leukemia): 1.67 µM
TGI (OVCAR-5 ovarian): 3.81 µM
TGI (BT-549 breast): 2.63 µM
TGI (SW-620 colon): 13 µM
TGI (OVCAR-8 ovarian): 5.62 µM
TGI (UACC-257 melanoma): 2.73 µM
TGI (NCI-H226 lung): 3.65 µM
TGI (SF-539 CNS): 9.24 µM
TGI (CAKI-1 renal): 8.02 µM
TGI (SNB-75 CNS): 4.67 µM
TGI (NCI-H522 lung): 0.913 µM
TGI (LOX IMVI melanoma): 4.96 µM
TGI (COLO 205 colon): 0.366 µM
TGI (TK-10 renal): 8.12 µM
TGI (RPMI-8226 leukemia): 0.616 µM
TGI (HCC-2998 colon): 4.06 µM
TGI (HOP-62 NSCLC): 8.32 µM
TGI (SK-MEL-2 melanoma): 0.923 µM
TGI (A549 NSCLC): 15.3 µM
TGI (NCI-H460 lung): 10.7 µM
TGI (M14 melanoma): 5.67 µM
TGI (HCT-116 colon): 1.76 µM
TGI (PC-3 prostate): 10.1 µM
TGI (ACHN renal): 10.9 µM
TGI (SR leukemia): 1.75 µM
TGI (SF-268 CNS): 10.2 µM
TGI (OVCAR-3 ovarian): 1.57 µM
TGI (MDA-MB-435): 2.35 µM
TGI (HOP-92 NSCLC): 2.32 µM
TGI (MCF7 breast): 5.74 µM
TGI (NCI-H23 lung): 5.34 µM
TGI (786-0 renal): 11.7 µM
TGI (CCRF-CEM leukemia): 0.737 µM
TGI (NCI/ADR-RES ovarian): > 100 µM
TGI (RXF 393 renal): 1.89 µM

COc1c2c(cc3oc(=O)ccc13)OC(C)(C)C=C2
TGI (SNB-19 CNS): > 125 µM
TGI (SF-295 CNS): > 125 µM
TGI (MDA-MB-231 breast): 76.2 µM
TGI (HS 578T breast): > 125 µM
TGI (HT29 colon): > 125 µM
TGI (DU-145 prostate): 55.9 µM
TGI (UO-31 renal): 73.6 µM
TGI (IGROV1 ovarian): 75.7 µM
TGI (SK-OV-3 ovarian): > 125 µM
TGI (K-562 leukemia): > 125 µM
TGI (MALME-3M melanoma): 87.8 µM
TGI (T-47D breast): 23.6 µM
TGI (SK-MEL-5 melanoma): 41.8 µM
TGI (SK-MEL-28 melanoma): 75.9 µM
TGI (EKVX NSCLC): > 125 µM
TGI (UACC-62 melanoma): 42.2 µM
TGI (SN12C renal): 100 µM
TGI (MDA-N): 91.7 µM
TGI (KM12 colon): 48.5 µM
TGI (HCT-15 colon): 65.5 µM
TGI (U251 CNS): 78.5 µM
TGI (MOLT-4 leukemia): 59.1 µM
TGI (BT-549 breast): 70.2 µM
TGI (SW-620 colon): 84.6 µM
TGI (OVCAR-8 ovarian): 75.1 µM
TGI (UACC-257 melanoma): 85.2 µM
TGI (NCI-H226 lung): > 125 µM
TGI (SF-539 CNS): > 125 µM
TGI (CAKI-1 renal): 29 µM
TGI (SNB-75 CNS): 56.6 µM
TGI (NCI-H522 lung): 63.9 µM
TGI (LOX IMVI melanoma): 41.8 µM
TGI (COLO 205 colon): 73.6 µM
TGI (HL-60(TB) leukemia): 45.2 µM
TGI (TK-10 renal): > 125 µM
TGI (RPMI-8226 leukemia): 87.6 µM
TGI (HCC-2998 colon): 46.3 µM
TGI (HOP-62 NSCLC): > 125 µM
TGI (SK-MEL-2 melanoma): 51.1 µM
TGI (A549 NSCLC): > 125 µM
TGI (NCI-H460 lung): 62.2 µM
TGI (M14 melanoma): 48.4 µM
TGI (HCT-116 colon): 40.8 µM
TGI (ACHN renal): 70 µM
TGI (SR leukemia): 44.6 µM
TGI (SF-268 CNS): > 125 µM
TGI (OVCAR-3 ovarian): > 125 µM
TGI (MDA-MB-435): 68.7 µM
TGI (HOP-92 NSCLC): 34.1 µM
TGI (MCF7 breast): 57.8 µM
TGI (NCI-H23 lung): 60.1 µM
TGI (786-0 renal): 63.8 µM
TGI (NCI/ADR-RES ovarian): 70.6 µM
